Experimental data as given in paper PMC3260207, “Site-Directed Mutations and the Polymorphic Variant Ala160Thr in the Human Thromboxane Receptor Uncover a Structural Role for Transmembrane Helix 4” (PLoS ONE, 2012).
Residue numbers refer to the chain shown, from its start.

Columns and labels:
Experiment in all cases: Saturation radioligand binding with [3H] SQ 29,548, membranes
Conditions in all cases: picomoles of TP per milligram of total membrane protein, mean ± S.E
TP F114A mutant = biological target: T1, TP F114A mutant (Homo sapiens, UniProt P21731, F114A)
T1 construct: expressed in transfected cells; HEK293T (calcium assays)
T1 sequence (P21731 1-343 F114A): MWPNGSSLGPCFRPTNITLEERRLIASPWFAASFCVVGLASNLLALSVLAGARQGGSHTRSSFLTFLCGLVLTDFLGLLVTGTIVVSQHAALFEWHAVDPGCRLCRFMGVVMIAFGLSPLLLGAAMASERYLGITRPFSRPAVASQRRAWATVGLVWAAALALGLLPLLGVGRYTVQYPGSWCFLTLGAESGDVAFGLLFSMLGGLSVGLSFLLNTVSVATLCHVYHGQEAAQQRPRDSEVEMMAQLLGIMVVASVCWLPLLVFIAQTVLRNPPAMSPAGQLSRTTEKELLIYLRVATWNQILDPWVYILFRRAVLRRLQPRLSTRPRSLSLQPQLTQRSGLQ
Method: (§1) Amino acid substitutions were introduced into the synthetic TPα gene carried by the expression vector pMT4 as described previously, [29]. DNA sequences of all the mutated genes were verified by automated DNA sequencing. To minimize variations in transfection efficiency, the total amount transfected DNA was kept constant in all cases at 1 µg of DNA per 7×10^5 cells. The wild type TP or mutant genes were expressed in COS-1 cells using a DEAE-dextran based transient transfection method, [29], and in HEK293T cells using lipofectamine 2000 (Invitrogen). Except unless specified, the membranes prepared from COS-1 cells were used for radioligand binding assays and immunoblots. For intracellular calcium determination assays and immunofluorescence imaging, HEK293T cells were used. For transient transfections of HEK293T cells using the plasmid pMT4, lipofectamine 2000 (Invitrogen) mediated transfection was used as described by the manufacturer. Membranes were prepared using Buffers A and B and as described previously, [29]. The protein concentration in the resuspended membrane pellet was determined using a modified DC protein assay kit from Bio-Rad Laboratories (Hercules, CA).
(§2) These were carried out in Buffer C for 60 min at room temperature, using 2 to 20 µg of membrane protein and different concentrations of [^3H] […] Binding of [^3H] […] Competition binding assays were performed using 4 nM [^3H] […] Binding was terminated by filtering under vacuum on GF/A filters (Millipore). Filter-bound radioactivity was measured using a liquid scintillation counter. Equilibrium dissociation constants (Kd) were determined from saturation isotherms using PRISM software version 5.0 (GraphPad Software Inc, San Diego, CA, USA). The Ki values were calculated from the IC50, using the equation of Cheng and Prusoff by PRISM software version 5.0.

[1] = biological target: T2, WT-TP (wild type human thromboxane A2 receptor TPα) (Homo sapiens, UniProt P21731)
T2 construct: expressed in transfected cells; HEK293T (calcium assays)
T2 sequence (P21731 1-343): T1 sequence (P21731 1-343 F114A) with A114F
Method: as §1, §2

TP G164A mutant = biological target: T3, TP G164A mutant (Homo sapiens, UniProt P21731, G164A)
T3 construct: expressed in transfected cells; HEK293T (calcium assays)
T3 sequence (P21731 1-343 G164A): T1 sequence (P21731 1-343 F114A) with A114F, G164A
Method: as §1, §2

TP F107A mutant = biological target: T4, TP F107A mutant (Homo sapiens, UniProt P21731, F107A)
T4 construct: expressed in transfected cells; HEK293T (calcium assays)
T4 sequence (P21731 1-343 F107A): T1 sequence (P21731 1-343 F114A) with F107A, A114F
Method: as §1, §2

TP A160V mutant = biological target: T5, TP A160V mutant (Homo sapiens, UniProt P21731, A160V)
T5 construct: expressed in transfected cells; HEK293T (calcium assays)
T5 sequence (P21731 1-343 A160V): T1 sequence (P21731 1-343 F114A) with A114F, A160V
Method: as §1, §2

O=C(O)CCC/C=C\C[C@@H]1[C@H](CNNC(=O)Nc2ccccc2)[C@H]2CC[C@@H]1O2 [SQ 29,548]
Bmax, binding maximum of the ligand SQ 29,548 for the receptor (TP F114A mutant): 1.6 ± 0.3 pmol/mg | Bmax, binding maximum of the ligand SQ 29,548 for the receptor [1]: 3.8 ± 0.3 pmol/mg | Bmax, binding maximum of the ligand SQ 29,548 for the receptor (TP G164A mutant): 6.3 ± 0.4 pmol/mg | Bmax, binding maximum of the ligand SQ 29,548 for the receptor (TP F107A mutant): 1.8 ± 0.2 pmol/mg | Bmax, binding maximum of the ligand SQ 29,548 for the receptor (TP A160V mutant): 1.9 ± 0.3 pmol/mg
